# In US20240383853A1, “OXIMES AND THEIR USE IN TREATMENT OF GBA-RELATED DISEASES” (ZEVRA DENMARK A/S, priority 2021, published 2024):
# Target: T1, glucosylceramidase (GCase, GBA) in human fibroblast cell line GM10915 harboring the L444P GBA mutation (Homo sapiens, UniProt P04062, L483P)
# T1 construct: Human fibroblast cell line GM10915 harboring the L444P GBA mutation; host or cells: GM10915 human fibroblasts
# T1 sequence (P04062 40-536 L483P): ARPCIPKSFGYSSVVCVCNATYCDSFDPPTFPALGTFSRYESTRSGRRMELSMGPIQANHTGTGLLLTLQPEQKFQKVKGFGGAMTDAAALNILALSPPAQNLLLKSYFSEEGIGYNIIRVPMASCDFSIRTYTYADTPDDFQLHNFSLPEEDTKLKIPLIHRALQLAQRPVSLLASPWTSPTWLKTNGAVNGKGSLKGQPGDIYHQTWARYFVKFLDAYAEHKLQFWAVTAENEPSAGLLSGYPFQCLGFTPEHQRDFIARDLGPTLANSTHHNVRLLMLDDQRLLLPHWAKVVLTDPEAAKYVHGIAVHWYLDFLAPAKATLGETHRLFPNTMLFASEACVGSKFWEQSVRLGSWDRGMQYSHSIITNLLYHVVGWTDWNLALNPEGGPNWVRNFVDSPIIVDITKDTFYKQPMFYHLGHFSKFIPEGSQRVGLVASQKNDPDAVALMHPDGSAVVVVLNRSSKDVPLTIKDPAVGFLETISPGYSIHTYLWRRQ
# Assay: GCase activity assay (4-MUG substrate, normalised to crystal violet staining) in GM10915 fibroblasts
# Type: cell-based
# Conditions: five days exposure; for GBA EC1.5: concentration where Percent GCase activity = 150% (1.5-fold induction), 8-point dose range; for GBA Emax / Emax: maximum Percent GCase activity relative to untreated cells in the dose range tested
# Method: Human fibroblast cell line GM10915 harboring the L444P GBA mutation was obtained from Coriell Biorepositories. All chemicals (Glacial acetic acid, Glycine, 4-Methylumbelliferyl b-D-glucopyranoside (4-MUG), Sodium acetate trihydrate, Sodium hydroxide, Crystal violet, SDS, Ammonium hydroxide) were obtained from Sigma-Aldrich (Denmark). Compounds tested for GCase activity were dissolved in H2O or DMSO.
# The GM10915 cell line was cultured under standard cell culture conditions (37° C. and 5% CO2) in complete DMEM medium supplemented with nonessential amino acids (NEAA), 1% Pen-Strep and 12% FCS. Cells were seeded at a density of 10^4 cells/well in 100 μL complete medium in one black 96-well plate for glucosylceramidase (GCase) activity measurement and in one clear 96-well plate for crystal violet staining to correct for cell density. Crystal violet staining is performed to obtain quantitative information about the relative density of cells adhering to multi-wells plates.
# The assay was adapted from Sawkar et al (2002) and briefly described in the following. The day after seeding of cells, the medium was replaced with fresh medium containing the compounds to be tested. Compounds were tested in duplicate and in an 8-point diluted dose range to obtain a dose response. Cells were exposed with compounds for five days. Fresh compound was added every 2-3 days. PBS was included to define the basal level of GCase activity.
# Cells were washed three times with 200 μL PBS per well and 50 μL of 2.5 mM 4-MUG buffer (4-MUG dissolved in 0.2 M acetate buffer pH 4.0) was added and the cells were incubated at 37° C., 5% CO2 for 23 hours. The reaction was stopped by adding 150 μL 0.2 M glycine buffer (pH 10.8). Fluorescence was measured with a Varioskan® Flash reader (Thermo Scientific) at an excitation/emission setting of 365/445 nm.
# Cells were treated with compounds in a parallel setup identical to the setup to test for GCase activity. At the end of compound treatment, cells were washed once with 200 μL PBS per well and 50 μL 0.1% w/v crystal violet (in H2O) was added. Following 10 min. of incubation, the crystal violet solution was removed, and the cells were washed three times with 200 μL PBS and 100 μL 1% SDS was added to solubilize the stain. The plate was agitated on an orbital shaker for 10-30 min. Absorbance (A) is measured at […] using a Varioskan® Flash reader (Thermo Scientific).
# The fluorescence signal (F) derived from the GCase measurement is normalized to the absorbance signal (A) derived from the crystal violet staining. The percent GCase activity resulting from compound treatment is calculated relative to the basal activity obtained from untreated cells.
# Maximal effect of compounds (Emax) is determined from the dose response effects as the maximum “Percent GCase activity” achieved in the dose range tested.
Compound,GBA EC1.5,Emax,other results
"OC(CO/N=C(\Cl)C1(Cc2cccnc2)CCNCC1)CN1CCCCC1 (centres unmarked) [ID 419, N-(2-hydroxy-3-(piperidin-1-yl)propoxy)-4-(pyridin-3-ylmethyl)piperidine-4-carbimidoyl chloride tri-2,2,2-trifluoroacetate]",,,GBA EC1.5 (listed as 419): 12 µM; GBA Emax (listed as 419): 387%
"CN(C)CC/C(Cl)=N\OCC(O)CN1CCCCC1 (centres unmarked) [ID 446, 3-(dimethylamino)-N-(2-hydroxy-3-(piperidin-1-yl)propoxy)propanimidoyl chloride]",6 µM,176%,
"COCCC1(/C(Cl)=N/OCC(O)CN2CCCCC2)CCNCC1 (centres unmarked) [ID 448, N-(2-hydroxy-3-(piperidin-1-yl)propoxy)-4-(2-methoxyethyl)piperidine-4-carbimidoyl chloride di-2,2,2-trifluoroacetate]",34 µM,468%,
"OC(CON=C(Br)c1ccnnc1)CN1CCCCC1 (centres unmarked) [ID 452, N-(2-hydroxy-3-(piperidin-1-yl)propoxy)pyridazine-4-carbimidoyl bromide]",18 µM,572%,
"Cc1ncc(C(Cl)=NOCC(O)CN2CCCCC2)s1 (centres unmarked) [ID 453, N-(2-hydroxy-3-(piperidin-1-yl)propoxy)-2-methylthiazole-5-carbimidoyl chloride]",39 µM,202%,
"OC(CON=C(Cl)c1ccc(Cl)nc1)CN1CCCCC1 (centres unmarked) [ID 466, 6-chloro-N-(2-hydroxy-3-(piperidin-1-yl)propoxy)nicotinimidoyl chloride]",18 µM,221%,
"Cc1cc(C(Cl)=NOCC(O)CN2CCCCC2)on1 (centres unmarked) [ID 475, N-(2-hydroxy-3-(piperidin-1-yl)propoxy)-3-methylisoxazole-5-carbimidoyl chloride]",24 µM,354%,
"OC(CO/N=C(\Cl)C1(c2cccnc2)CCNCC1)CN1CCCCC1 (centres unmarked) [ID 492, N-(2-hydroxy-3-(piperidin-1-yl)propoxy)-4-(pyridin-3-yl)piperidine-4-carbimidoyl chloride tri-2,2,2-trifluoroacetate]",42 µM,383%,
"Cc1cc(Cl)ncc1C(Cl)=NOCC(O)CN1CCCCC1 (centres unmarked) [ID 501, 6-chloro-N-(2-hydroxy-3-(piperidin-1-yl)propoxy)-4-methylnicotinimidoyl chloride]",19 µM,128%,
"CC(O)(CON=C(Cl)c1ccc(Cl)nc1)CN1CCCCC1 (centres unmarked) [ID 502, 6-chloro-N-(2-hydroxy-2-methyl-3-(piperidin-1-yl)propoxy)nicotinimidoyl chloride]",23 µM,131%,
COC(CO/N=C(\Cl)c1ccc(Cl)nc1)CN1CCCCC1 (centres unmarked) [ID 503],50 µM,142%,
"OC(CON=C(Br)c1ccc(Cl)nc1)CN1CCCCC1 (centres unmarked) [ID 504, 6-chloro-N-(2-hydroxy-3-(piperidin-1-yl)propoxy)nicotinimidoyl bromide]",20 µM,310%,
OC(CO/N=C(\Cl)C1(c2cnccn2)CCNCC1)CN1CCCCC1 (centres unmarked) [ID 512],50 µM,147%,
"OC(CON=C(Cl)C1(c2ccccn2)CCNCC1)CN1CCCCC1 (centres unmarked) [ID 534, N-(2-hydroxy-3-(piperidin-1-yl)propoxy)-4-(pyridin-2-yl)piperidine-4-carbimidoyl chloride tri-2,2,2-trifluoroacetate]",19 µM,226%,
OC(CO/N=C(\Cl)C1(Cc2cccnc2)CCNCC1)CN1CCCCC1 (centres unmarked) [ID 550],,,GBA EC1.5 (listed as 550): 27 µM; GBA Emax (listed as 550): 159%
"OC(CON=C(Cl)CCN1CCCC1)CN1CCCCC1 (centres unmarked) [ID 562, N-(2-hydroxy-3-(piperidin-1-yl)propoxy)-3-(pyrrolidin-1-yl)propanimidoyl chloride]",3 µM,239%,
"OC(CON=C(Cl)CCN1CCCCC1)CN1CCCCC1 (centres unmarked) [ID 563, N-(2-hydroxy-3-(piperidin-1-yl)propoxy)-3-(piperidin-1-yl)propanimidoyl chloride]",3 µM,211%,
OC(CO/N=C(\Cl)CCN1CCNCC1)CN1CCCCC1 (centres unmarked) [ID 593],50 µM,136%,
"CN(CC/C(Cl)=N\OCC(O)CN1CCCCC1)C(=O)OC(C)(C)C (centres unmarked) [ID 599, tert-butyl (3-chloro-3-((2-hydroxy-3-(piperidin-1-yl)propoxy)imino)propyl)(methyl)carbamate]",48 µM,136%,
"CCCCCO[C@H]1CC[C@H](NC(=O)c2cnn3c(C)cc(C)nc23)CC1 [LTI-291, reference compound]",112 µM,232%,
"N-(2-hydroxy-3-(piperidin-1-yl)propoxy)-4-((6-methoxy-2-methylpyridin-3-yl)methyl)piperidine-4-carbimidoyl chloride tri-2,2,2-trifluoroacetate [ID 524]",1 µM,,GBA Emax: 149%
"N-(2-hydroxy-3-(piperidin-1-yl)propoxy)-4-((6-methylpyridin-3-yl)methyl)piperidine-4-carbimidoyl chloride tri-2,2,2-trifluoroacetate [ID 493]",18 µM,,GBA Emax: 279%
